Assay results taken from patent US7901906B2, “Targeting of MKRN1 for identifying cancer treatment agents” (University of Central Florida Research Foundation, Inc., priority 2006, dated 2011).
Non-standard residues stand in square brackets, D forms with d. Residues, ends and D or L forms follow the SMILES beside them. *: point of attachment. Nle = CCCC[C@H](N)C(=O)O; Cbz = O=C(OCc1ccccc1)*

Test system: MKRN1
Experiment: Levels of ectopically expressed MKRN1 by anti-V5 immunoblotting
Format: cell-based, human
Experimental: FIG. 3. MKRN1 interacts with hTERT. (A) Analysis of the physical interaction between hTERT and MKRN1 using the yeast two-hybrid assay. Five domains of hTERT were analyzed for binding to MKRN1. TRF1 bait was used as a negative control. Blue signal on the SG-HWU/X plate indicates activation of the reporter gene, LacZ. S, synthetic; G, galactose; H, histidine (−); W, tryptophan (−); U, uracil (−); X, X-gal. (B) Schematic diagram of MKRN1 domains. Amino acid sequences (SEQ ID NOS 3-5, respectively in order of appearance) surrounding the RING finger domain in MKRN1 and mutants used in this study. Cysteines and a histidine in the RING finger domain are shown in red. Mutated residue in MKRN1^H307E is shown in blue. (C) H1299 cells co-transfected with hTERT-HA and MKRN1-V5 were either untreated or treated for 2 hours with 10 μg/ml ALLnN. Anti-HA immunoprecipitates were analyzed by immunoblotting using an anti-V5 antibody probe. […] (D) H1299 cells co-transfected with Flag-hTERT and MKRN1-V5 were either untreated or treated for 2 hours with 10 μM MG132. Anti-Flag immunoprecipitates were analyzed by immunoblotting using an anti-V5 antibody probe. […] Flag-hTERT was visualized with an anti-Flag antibody probe.
FIG. 4. MKRN1 functions as an E3 ubiquitin-ligase for hTERT in vitro and in vivo. (A) HA-tagged hTERT (residues 946-1132) was incubated MKRN1 or mutants in the presence of E1, E2, His6-ubiquitin (6×His tag disclosed as SEQ ID NO: 7). Samples were resolved by 6% SDS-PAGE and analyzed by immunoblotting with an anti-HA antibody probe. (B) H1299 cells were co-transfected with Flag-hTERT, HA-ubiquitin, MKRN1-V5, and together with either MKRN1^H307E-V5 or MKRN1^Δ^C-V5 as specified. Cells were untreated or treated with 10 μM MG132 for 2 hours. Anti-Flag immunoprecipitates and cell lysates were analyzed by immunoblotting with anti-HA antibody and anti-V5 antibody probes, respectively. (C) H1299 cells co-transfected with Flag-hTERT and HA-ubiquitin, and together with or without MKRN1-V5 as indicated were treated with 10 μM MG132 for the indicated times. Anti-Flag immunoprecipitates and cell lysates were analyzed by immunoblotting with anti-HA antibody and anti-V5 antibody probes, respectively.
FIG. 5. Overexpression of MKRN1 decreases telomerase activity and telomere length. (A) HT1080 cells were stably transfected with MKRN1-V5 or an empty vector. The cells were untreated or treated for 2 hours with 10 μM MG132. Cell lysates were analyzed by immunoblotting with anti-V5 antibody probe. (B) Stable HT1080 cell lines (MKRN1 and vector) were harvested at 45 PD, and telomerase activities were measured with different amounts of proteins using the TRAP assay. The lane labeled LB corresponds to the negative control (lysis buffer only). ITAS represents the internal telomerase assay standard. (C) Cell lysates from stable HT1080 cell lines were analyzed by immunoprecipitation with anti-hTERT antibody followed by immunoblotting using same antibody probe. (D) Representative results of RT-PCR analysis for the expression of MKRN1, hTERT, and hTR in stable HT1080 cell lines. RT-PCR products from each sample were normalized to glyceraldehyde-3-phosphate dehydrogenase (GAPDH) signal. (E) Stable HT1080 cell lines were harvested at 45 PD, and genomic DNA was digested with RsaI and HinfI, followed by Southern blotting using a telomere repeat probe.
H1299 cells were transiently transfected with the expression vectors indicated in the figure legends using TransFast transfection reagent (Promega, Madison, Wis.) according to the manufacturer's instructions. Cells were lysed with buffer containing 0.5% NP-40, 50 mM Tris-HCl (pH 7.5), 150 mM NaCl, 2 mM phenyl methylsulphonyl fluoride. […]

Structure (SMILES)	MKRN1 expression (H1299, MKRN1-V5, 10 μM MG132, 2 hours)	unmodified and polyubiquitinated MKRN1 species over time (H1299, MKRN1-V5, 10 μM MG132, indicated times)	amount of MKRN1^ΔC (H1299, MKRN1^ΔC-V5, 10 μM MG132, 2 hours)	MKRN1^H307E expression level, MG132 treatment versus absence (H1299 cotransfected with MKRN1 and MKRN1^H307E, 10 μM MG132) [fold]	MKRN1 level in stable HT1080 cells (HT1080 stably expressing MKRN1-V5, 10 μM MG132, 2 hours)	MKRN1 species in cell lysates (H1299 co-transfected with hTERT-HA and MKRN1-V5, 10 μg/ml ALLnN, 2 hours)
CC(C)C[C@@H](C=O)NC(=O)[C@H](CC(C)C)NC(=O)[C@H](CC(C)C)NC(=O)OCc1ccccc1 [MG132] (Cbz-Leu-Leu-Leu-aldehyde)	clearly elevated	increased in a time-dependent manner	no effect	~2	substantial increase	–
CCCC[C@@H](C=O)NC(=O)[C@H](CC(C)C)NC(=O)[C@H](CC(C)C)NC(C)=O [ALLnN] (Ac-Leu-Leu-[Nle]-aldehyde)	–	–	–	–	–	significant increase
